Data reported in paper PMC11992225, “Antibacterial compounds against non-growing and intracellular bacteria” (npj Antimicrobials and Resistance, 2025).
Where two headings read alike, the source gives them in different places.

Columns and labels:
[1] = tested on: non-growing S. aureus DSM2569; assay: Dilution-regrowth assay (OD600, start-growth-time) on stationary-phase S. aureus; type: cell-based, Staphylococcus aureus; conditions: S. aureus; for Regrowth, OD600 at 6h or 8h after dilution into drug-free medium: average; for EC50: Staphylococcus aureus, DSM2569, regrowth delay of non-growing bacteria, 1:4 CA-MHB pH 7.4, 24 h treatment, OD600 8 h after dilution, read-out: EC50
Summary of the method: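 Non-growing S. aureus was tested in a dilution-regrowth format. Cells were cultured and treated for 24 h in 1:4 diluted CA-MHB, pH 7.4, then diluted into drug-free medium, and OD600 was measured every 20 min. Start-growth-time was the time OD600 passed 0.12. Dose-response curves were fitted with a five-parameter logistic equation to derive EC50.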

[2] = tested on: intracellular S. flexneri 5a M90T in TC7 cells; assay: microbe, parasite or virus in culture; type: cell-based, Shigella flexneri; conditions: for IC50: Shigella flexneri, TC7, 14 h
non-growing UPEC CFT073 = assay: Dilution-regrowth assay (screen, hit validation, dose-response) on stationary-phase UPEC; type: cell-based, Escherichia coli; conditions: for Regrowth, OD600 at 6h or 8h after dilution into drug-free medium: average; for EC50: Escherichia coli
Summary of the method: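 Regrowth (OD600 after 6 h, 37 °C) of diluted non-growing CFT073, following 24 h compound treatment of 24 h stationary cultures, defines activity relative to untreated control. Screen at 20 µM, validation at 20, 10, 5 µM (duplicates), dose–response in three biological replicates fitted by five-parameter logistic.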

[3] = TC7 cells infected with GFP-expressing S. flexneri, 14 h treatment
[4] = E. coli, LPM pH 5.5, regrowth delay of non-growing bacteria, 24 h treatment, OD600 6 h after 2500-fold dilution, read-out: EC50
[5] = E. coli, pH 7.4, regrowth delay of non-growing bacteria, 1:4 CA-MHB, 24 h treatment, OD600 6 h after 2500-fold dilution, read-out: EC50

Compound | EC50 [1] | IC50 [2] | Fluorescence intensity (RFU), Mean, 0.5 x MIC [2, 3] | Fluorescence intensity (RFU), Mean, 2 x MIC [2, 3] | Fluorescence intensity (RFU), Mean, 4 x MIC [2, 3] | Fluorescence intensity (RFU), Mean, 8 x MIC [2, 3] | Fluorescence intensity (RFU), Mean, 16 x MIC [2, 3] | Fluorescence intensity (RFU), Mean, 32 x MIC [2, 3] | Fluorescence intensity (RFU), Mean, MIC [2, 3] | EC50 (non-growing UPEC CFT073; [4]) | EC50 (non-growing UPEC CFT073; [5]) | also measured
N[C@@H]1CCCCN(c2c(F)cc3c(=O)c(C(=O)O)cn(C4CC4)c3c2Cl)C1 [Besifloxacin] | 0.401 µM | 0.331 µM | 8982.33 RFU | 4305.25 RFU | 3977.14 RFU | 2983.69 RFU | 2325.53 RFU | 1789.06 RFU | 5856.42 RFU |  |  | Regrowth, OD600 at 6h or 8h after dilution into drug-free medium ([1]; concentration 0.1): 0.576; Regrowth, OD600 at 6h or 8h after dilution into drug-free medium ([1]; concentration 0.5): 0.336; Regrowth, OD600 at 6h or 8h after dilution into drug-free medium ([1]; concentration 2.5): 0.134; Regrowth, OD600 at 6h or 8h after dilution into drug-free medium ([1]; concentration 10): 0.097; Regrowth, OD600 at 6h or 8h after dilution into drug-free medium (non-growing UPEC CFT073; E. coli in 1:4 CA-MHB (pH 7.4), concentration 0.25): 0.548; Regrowth, OD600 at 6h or 8h after dilution into drug-free medium (non-growing UPEC CFT073; E. coli in 1:4 CA-MHB (pH 7.4), concentration 0.5): 0.480; Regrowth, OD600 at 6h or 8h after dilution into drug-free medium (non-growing UPEC CFT073; E. coli in 1:4 CA-MHB (pH 7.4), concentration 1): 0.155; Regrowth, OD600 at 6h or 8h after dilution into drug-free medium (non-growing UPEC CFT073; E. coli in 1:4 CA-MHB (pH 7.4), concentration 2.5): 0.075; Regrowth, OD600 at 6h or 8h after dilution into drug-free medium (non-growing UPEC CFT073; E. coli in 1:4 CA-MHB (pH 7.4), concentration 5): 0.073; Regrowth, OD600 at 6h or 8h after dilution into drug-free medium (non-growing UPEC CFT073; E. coli in 1:4 CA-MHB (pH 7.4), concentration 10): 0.071; Regrowth, OD600 at 6h or 8h after dilution into drug-free medium (non-growing UPEC CFT073; E. coli in 1:4 CA-MHB (pH 7.4), concentration 30): 0.073; Regrowth, OD600 at 6h or 8h after dilution into drug-free medium (non-growing UPEC CFT073; E. coli in LPM (pH 5.5), concentration 0.25): 0.547; Regrowth, OD600 at 6h or 8h after dilution into drug-free medium (non-growing UPEC CFT073; E. coli in LPM (pH 5.5), concentration 0.5): 0.532; Regrowth, OD600 at 6h or 8h after dilution into drug-free medium (non-growing UPEC CFT073; E. coli in LPM (pH 5.5), concentration 1): 0.550; Regrowth, OD600 at 6h or 8h after dilution into drug-free medium (non-growing UPEC CFT073; E. coli in LPM (pH 5.5), concentration 2.5): 0.548; Regrowth, OD600 at 6h or 8h after dilution into drug-free medium (non-growing UPEC CFT073; E. coli in LPM (pH 5.5), concentration 5): 0.531; Regrowth, OD600 at 6h or 8h after dilution into drug-free medium (non-growing UPEC CFT073; E. coli in LPM (pH 5.5), concentration 10): 0.531; Regrowth, OD600 at 6h or 8h after dilution into drug-free medium (non-growing UPEC CFT073; E. coli in LPM (pH 5.5), concentration 30): 0.471; EC50 (non-growing UPEC CFT073; pH 7.4): 0.677 µM
NC1CCN(c2nc3c(cc2F)c(=O)c(C(=O)O)cn3-c2ccc(F)cc2F)C1 (stereo not drawn) [Tosufloxacin] | 0.328 µM | 0.025 µM |  | 4963.31 RFU | 3475.06 RFU | 3341.83 RFU | 2905.56 RFU | 2463.67 RFU | 6769 RFU | 10.3 µM | 0.753 µM | 
O=C(O)c1cn(-c2ccc(F)cc2)c2cc(N3CCNCC3)c(F)cc2c1=O [Sarafloxacin] | 0.662 µM | 0.114 µM |  | 5001.97 RFU | 3626.47 RFU | 3165.28 RFU | 2660.39 RFU | 2149.72 RFU | 7309.11 RFU |  | 1.72 µM | 
CN1CCN(c2cc3c(cc2F)c(=O)c(C(=O)O)cn3-c2ccc(F)cc2)CC1 [Difloxacin] | 2.97 µM | 0.183 µM | 8126.42 RFU | 3233.81 RFU | 2824.97 RFU | 2319.67 RFU | 1827.36 RFU | 1634.92 RFU | 3866.17 RFU | 9.95 µM | 6.46 µM | OD600 at 6h or 8h after dilution into drug-free medium (regrowth) ([1]; drug conc 0.1): 0.660; OD600 at 6h or 8h after dilution into drug-free medium (regrowth) ([1]; drug conc 0.5): 0.630; OD600 at 6h or 8h after dilution into drug-free medium (regrowth) ([1]; drug conc 2.5): 0.506; OD600 at 6h or 8h after dilution into drug-free medium (regrowth) ([1]; drug conc 10): 0.371; Fluorescence intensity (RFU), Mean, 0.25 x MIC ([2]; TC7 cells infected with GFP-expressing S. flexneri, 14 h treatment, 0.25 x MIC): 8915.25 RFU
